# Laboratory results as given in patent US12384797B2, “Thioeno[3,2-b] pyridin-7-amine compounds for treating familial dysautonomia” (PTC THERAPEUTICS, INC., priority 2019, dated 2025).
# System: Elongator complex protein 1 (ELP1, also referred to as IKBKAP)
# Experiment: IKBKAP-HTRF assay (IKBKAP protein in lysates of FD patient-derived fibroblasts)
# Assay type: cell-based, human
# Details: 48 hours incubation, 7-point concentration curve
# Procedure, shortened: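 FD patient-derived fibroblasts (10,000/well) were treated 48 h at 37 °C with a 7-point, 3.16-fold compound series in triplicate, then lysed. IKBKAP was read by sandwich HTRF (donor/acceptor anti-IKAP antibodies, overnight at 4 °C, 665/620 nm). MFI is ΔF over vehicle ΔF; EC2x is the concentration giving twice the vehicle IKBKAP level.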
Compound,EC2x for IKBKAP protein expression (concentration producing two times the amount of IKBKAP protein vs DMSO vehicle control),MFI (maximum fold increase in IKBKAP protein abundance relative to the vehicle control)
"N[C@@H](COC(F)(F)F)Cc1sc2c(NCc3nccs3)cc(Cl)nc2c1Br [Compound 64, 2-[(2R)-2-amino-3-(trifluoromethoxy)propyl]-3-bromo-5-chloro-N-[(1,3-thiazol-2-yl)methyl]thieno[3,2-b]pyridin-7-amine]",**** (between >0.005 μM and ≤0.02 μM is indicated by four stars (****)),***** (>4.9 is indicated by five stars (*****))
"Clc1cc(NCc2nccs2)c2scc(Br)c2n1 [Compound 9, 3-bromo-5-chloro-N-[(1,3-thiazol-2-yl)methyl]thieno[3,2-b]pyridin-7-amine]",*** (between >0.02 μM and ≤0.5 μM is indicated by three stars (***)),***** (>4.9 is indicated by five stars (*****))
"Cc1c(C[C@@H](N)CC#N)sc2c(NCc3ccco3)cc(Cl)nc12 [Compound 111, (3S)-3-amino-4-(5-chloro-7-{[(furan-2-yl)methyl]amino}-3-methylthieno[3,2-b]pyridin-2-yl)butanenitrile]",**** (between >0.005 μM and ≤0.02 μM is indicated by four stars (****)),***** (>4.9 is indicated by five stars (*****))
"C[C@H](N)C(O)c1sc2c(NCc3cccs3)cc(Cl)nc2c1Cl (stereo partly drawn) [Compound 127, (2S)-2-amino-1-(3,5-dichloro-7-{[(thiophen-2-yl)methyl]amino}thieno[3,2-b]pyridin-2-yl)propan-1-ol]",**** (between >0.005 μM and ≤0.02 μM is indicated by four stars (****)),***** (>4.9 is indicated by five stars (*****))
"2-[(2S)-2-aminobutyl]-5-chloro-3-cyclopropyl-N-[(thiophen-2-yl)methyl]thieno[3,2-b]pyridin-7-amine [Compound 75]",*** (between >0.02 μM and ≤0.5 μM is indicated by three stars (***)),***** (>4.9 is indicated by five stars (*****))
"N[C@H](CF)Cc1sc2c(NCc3nccs3)cc(Cl)nc2c1Cl [Compound 67, 2-[(2S)-2-amino-3-fluoropropyl]-3,5-dichloro-N-[(1,3-thiazol-2-yl)methyl]thieno[3,2-b]pyridin-7-amine]",* (An EC2x>1 μM is indicated by one star (*)),* (An MFI≤1.9 is indicated by one star (*))
"N[C@@H](CF)Cc1sc2c(NCc3ccco3)cc(Cl)nc2c1Cl [Compound 94, 2-[(2R)-2-amino-3-fluoropropyl]-3,5-dichloro-N-[(furan-2-yl)methyl]thieno[3,2-b]pyridin-7-amine]",***** (≤0.005 μM is indicated by five stars (*****)),**** (between >3.9 and ≤4.9 is indicated by four stars (****))
"COc1csc2c(NCc3ccco3)cc(Cl)nc12 [Compound 137, 5-chloro-N-[(furan-2-yl)methyl]-3-methoxythieno[3,2-b]pyridin-7-amine]",*** (between >0.02 μM and ≤0.5 μM is indicated by three stars (***)),***** (>4.9 is indicated by five stars (*****))
"OC[C@@H](Cc1sc2c(NCc3nccs3)cc(Cl)nc2c1Br)NC(F)(F)F [Compound 65, (2R)-3-(3-bromo-5-chloro-7-{[(1,3-thiazol-2-yl)methyl]amino}thieno[3,2-b]pyridin-2-yl)-2-[(trifluoromethyl)amino]propan-1-ol]",*** (between >0.02 μM and ≤0.5 μM is indicated by three stars (***)),***** (>4.9 is indicated by five stars (*****))
"Cc1c(C[C@@H](N)[C@H](C)F)sc2c(NCc3cccs3)cc(Cl)nc12 [Compound 126, 2-[(2R,3S)-2-amino-3-fluorobutyl]-5-chloro-3-methyl-N-[(thiophen-2-yl)methyl]thieno[3,2-b]pyridin-7-amine]",***** (≤0.005 μM is indicated by five stars (*****)),***** (>4.9 is indicated by five stars (*****))
"C[C@H](N)Cc1sc2c(NCc3cccs3)cc(C#N)nc2c1Br [Compound 101, 2-[(2S)-2-aminopropyl]-3-bromo-7-{[(thiophen-2-yl)methyl]amino}thieno[3,2-b]pyridine-5-carbonitrile]",***** (≤0.005 μM is indicated by five stars (*****)),***** (>4.9 is indicated by five stars (*****))
"CC(O)c1cc2nc(Cl)cc(NCc3ccco3)c2s1 (stereo not drawn) [Compound 4, 1-(5-chloro-7-{[(furan-2-yl)methyl]amino}thieno[3,2-b]pyridin-2-yl)ethan-1-ol]",* (An EC2x>1 μM is indicated by one star (*)),** (between >1.9 and ≤2.9 is indicated by two stars (**))
"Cc1c([C@H](C)[C@H](C)N)sc2c(NCc3ccco3)cc(Cl)nc12 [Compound 150, 2-[(2R,3S)-3-aminobutan-2-yl]-5-chloro-N-[(furan-2-yl)methyl]-3-methylthieno[3,2-b]pyridin-7-amine]",***** (≤0.005 μM is indicated by five stars (*****)),***** (>4.9 is indicated by five stars (*****))
"Cc1c(C(C)CN)sc2c(NCc3ccco3)cc(Cl)nc12 (stereo not drawn) [Compound 148, 2-(1-aminopropan-2-yl)-5-chloro-N-[(furan-2-yl)methyl]-3-methylthieno[3,2-b]pyridin-7-amine]",***** (≤0.005 μM is indicated by five stars (*****)),**** (between >3.9 and ≤4.9 is indicated by four stars (****))
"Cc1c(C(C)CO)sc2c(NCc3ccco3)cc(Cl)nc12 (stereo not drawn) [Compound 146, 2-(5-chloro-7-{[(furan-2-yl)methyl]amino}-3-methylthieno[3,2-b]pyridin-2-yl)propan-1-ol]",* (An EC2x>1 μM is indicated by one star (*)),* (An MFI≤1.9 is indicated by one star (*))
"CC[C@H](N)Cc1sc2c(NCc3cccs3)cc(Cl)nc2c1C [Compound 33, 2-[(2S)-2-aminobutyl]-5-chloro-3-methyl-N-[(thiophen-2-yl)methyl]thieno[3,2-b]pyridin-7-amine]",***** (≤0.005 μM is indicated by five stars (*****)),***** (>4.9 is indicated by five stars (*****))
"2-[(2S)-2-amino-4-methylpentyl]-5-chloro-3-cyclopropyl-N-[(1,3-thiazol-2-yl)methyl]thieno[3,2-b]pyridin-7-amine [Compound 80]",*** (between >0.02 μM and ≤0.5 μM is indicated by three stars (***)),*** (between >2.9 and ≤3.9 is indicated by three stars (***))
"N#Cc1csc2c(NCc3ccco3)cc(Cl)nc12 [Compound 14, 5-chloro-7-{[(furan-2-yl)methyl]amino}thieno[3,2-b]pyridine-3-carbonitrile]",*** (between >0.02 μM and ≤0.5 μM is indicated by three stars (***)),***** (>4.9 is indicated by five stars (*****))
"CC[C@H](N)Cc1sc2c(NCc3nccs3)cc(Cl)nc2c1C [Compound 85, 2-[(2S)-2-aminobutyl]-5-chloro-3-methyl-N-[(1,3-thiazol-2-yl)methyl]thieno[3,2-b]pyridin-7-amine]",***** (≤0.005 μM is indicated by five stars (*****)),***** (>4.9 is indicated by five stars (*****))
"Cc1csc2c(NCc3ccco3)cc(Cl)nc12 [Compound 2, 5-chloro-N-[(furan-2-yl)methyl]-3-methylthieno[3,2-b]pyridin-7-amine]",*** (between >0.02 μM and ≤0.5 μM is indicated by three stars (***)),***** (>4.9 is indicated by five stars (*****))
"C[C@H](N)Cc1sc2c(NCc3ccco3)cc(Cl)nc2c1C1CC1 [Compound 51, 2-[(2S)-2-aminopropyl]-5-chloro-3-cyclopropyl-N-[(furan-2-yl)methyl]thieno[3,2-b]pyridin-7-amine]",***** (≤0.005 μM is indicated by five stars (*****)),***** (>4.9 is indicated by five stars (*****))
